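Method: 48-hour compound exposure of cells in 96-well plates, five concentrations, linear interpolation of endpoints. Abbreviation: GI50, concentration required for 50% inhibition of growth.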 Activity calls are given as the source filed them. Cut-off read from the data, not from the text of the source: active = GI50 up to about 1.1 µM and inactive = higher.
What was measured:
Experiment in all cases: DTP human tumour cell line panel, 48 h
CCRF-CEM = tested on: CCRF-CEM
COLO 205 = tested on: COLO 205
SF-268 = tested on: SF-268
SK-OV-3 = tested on: SK-OV-3
SK-MEL-28 = tested on: SK-MEL-28
NCI-H522 = tested on: NCI-H522
U-251 = tested on: U-251
NCI-H460 = tested on: NCI-H460
DU-145 = tested on: DU-145
IGROV-1 = tested on: IGROV-1
SN12C = tested on: SN12C
HL-60 = tested on: HL-60
LOX IMVI = tested on: LOX IMVI
KM12 = tested on: KM12
HCT-15 = tested on: HCT-15
TK-10 = tested on: TK-10
ACHN = tested on: ACHN
NCI-H226 = tested on: NCI-H226
MDA-N = tested on: MDA-N
EKVX = tested on: EKVX

COc1cc2c(/C=C3/C(=O)Nc4cc(C)c(O)cc43)c(Cl)[nH]c2cc1C
GI50 (CCRF-CEM): 0.552 µM (active) | GI50 (COLO 205): 2.03 µM (inactive) | GI50 (SF-268): 6.12 µM (inactive) | GI50 (SK-OV-3): 2.1 µM (inactive) | GI50 (SK-MEL-28): 4.91 µM (inactive) | GI50 (NCI-H522): 2.98 µM (inactive) | GI50 (U-251): 3.9 µM (inactive) | GI50 (NCI-H460): 2.51 µM (inactive) | GI50 (DU-145): 2.75 µM (inactive) | GI50 (IGROV-1): 4.06 µM (inactive) | GI50 (SN12C): 2.4 µM (inactive) | GI50 (HL-60): 1.86 µM (inactive) | GI50 (LOX IMVI): 5.61 µM (inactive) | GI50 (KM12): 1.85 µM (inactive) | GI50 (HCT-15): 3.33 µM | GI50 (TK-10): 1.9 µM (inactive) | GI50 (ACHN): 4.37 µM (inactive) | GI50 (NCI-H226): 5.69 µM (inactive)

N[C@@H](CCC(=O)NCP(=O)(O)O)C(=O)O
GI50 (COLO 205): > 100 µM (inactive) | GI50 (SK-MEL-28): > 100 µM (inactive) | GI50 (NCI-H522): 18.2 µM (inactive) | GI50 (U-251): > 100 µM (inactive) | GI50 (MDA-N): > 100 µM (inactive) | GI50 (NCI-H460): > 100 µM (inactive) | GI50 (IGROV-1): > 100 µM (inactive) | GI50 (SN12C): > 100 µM (inactive) | GI50 (HL-60): > 100 µM (inactive) | GI50 (KM12): > 100 µM (inactive) | GI50 (HCT-15): > 100 µM | GI50 (EKVX): > 100 µM (inactive) | GI50 (TK-10): > 100 µM (inactive) | GI50 (ACHN): > 100 µM (inactive)

Cc1nc2c(=O)n(C)c(=O)n(C)c2o1
GI50 (CCRF-CEM): > 100 µM (inactive) | GI50 (COLO 205): > 100 µM (inactive) | GI50 (SF-268): > 100 µM (inactive) | GI50 (SK-OV-3): > 100 µM (inactive) | GI50 (NCI-H522): > 100 µM (inactive) | GI50 (U-251): > 100 µM (inactive) | GI50 (MDA-N): > 100 µM (inactive) | GI50 (NCI-H460): > 100 µM (inactive) | GI50 (IGROV-1): > 100 µM (inactive) | GI50 (SN12C): > 100 µM (inactive) | GI50 (LOX IMVI): > 100 µM (inactive) | GI50 (KM12): > 100 µM (inactive) | GI50 (HCT-15): > 100 µM | GI50 (EKVX): > 100 µM (inactive) | GI50 (TK-10): > 100 µM (inactive) | GI50 (ACHN): > 100 µM (inactive) | GI50 (NCI-H226): > 100 µM (inactive)

CN(C)CN1C(=O)S/C(=C2\C(=O)N(CN(C)C)c3ccccc32)C1=O
GI50 (COLO 205): 36.4 µM (inactive) | GI50 (SF-268): 32.8 µM (inactive) | GI50 (SK-OV-3): > 100 µM (inactive) | GI50 (SK-MEL-28): 64.7 µM (inactive) | GI50 (NCI-H522): 36.5 µM (inactive) | GI50 (U-251): 40.6 µM (inactive) | GI50 (NCI-H460): 32.3 µM (inactive) | GI50 (DU-145): 32.1 µM (inactive) | GI50 (IGROV-1): 57.5 µM (inactive) | GI50 (SN12C): 23.7 µM (inactive) | GI50 (HL-60): 18.2 µM (inactive) | GI50 (LOX IMVI): 21.2 µM (inactive) | GI50 (KM12): 41.5 µM (inactive) | GI50 (HCT-15): 30.4 µM | GI50 (EKVX): 43.3 µM (inactive) | GI50 (TK-10): 46.3 µM (inactive) | GI50 (ACHN): 43.7 µM (inactive) | GI50 (NCI-H226): 38.9 µM (inactive)

N=C(N)SCc1ccc2c(c1)S(=O)(=O)c1ccccc1O2
GI50 (CCRF-CEM): 10.5 µM (inactive) | GI50 (COLO 205): 29 µM (inactive) | GI50 (SF-268): 33.7 µM (inactive) | GI50 (SK-OV-3): 20.8 µM (inactive) | GI50 (SK-MEL-28): 16.4 µM (inactive) | GI50 (U-251): 18.1 µM (inactive) | GI50 (MDA-N): 17.7 µM (inactive) | GI50 (NCI-H460): 19.6 µM (inactive) | GI50 (DU-145): 32.4 µM (inactive) | GI50 (IGROV-1): 16.4 µM (inactive) | GI50 (SN12C): 37.5 µM (inactive) | GI50 (HL-60): 14.9 µM (inactive) | GI50 (LOX IMVI): 19.4 µM (inactive) | GI50 (KM12): 16.9 µM (inactive) | GI50 (HCT-15): 25.8 µM | GI50 (EKVX): 17 µM (inactive) | GI50 (TK-10): 15.7 µM (inactive) | GI50 (ACHN): 15.8 µM (inactive) | GI50 (NCI-H226): 16.7 µM (inactive)

O=C(O)c1cc(Cl)cc(NC(=O)C(Cl)Cl)c1Cl
GI50 (CCRF-CEM): > 100 µM (inactive) | GI50 (COLO 205): > 100 µM (inactive) | GI50 (SF-268): > 100 µM (inactive) | GI50 (SK-OV-3): > 100 µM (inactive) | GI50 (SK-MEL-28): > 100 µM (inactive) | GI50 (NCI-H522): > 100 µM (inactive) | GI50 (U-251): > 100 µM (inactive) | GI50 (NCI-H460): > 100 µM (inactive) | GI50 (IGROV-1): > 100 µM (inactive) | GI50 (SN12C): > 100 µM (inactive) | GI50 (HL-60): > 100 µM (inactive) | GI50 (LOX IMVI): > 100 µM (inactive) | GI50 (KM12): > 100 µM (inactive) | GI50 (HCT-15): > 100 µM | GI50 (EKVX): > 100 µM (inactive) | GI50 (TK-10): > 100 µM (inactive) | GI50 (ACHN): > 100 µM (inactive) | GI50 (NCI-H226): > 100 µM (inactive)

O=C1Nc2c(Cl)cc(Cl)cc2C1=O
GI50 (CCRF-CEM): 21.3 µM (inactive) | GI50 (COLO 205): 23.5 µM (inactive) | GI50 (SK-OV-3): 77.4 µM (inactive) | GI50 (SK-MEL-28): 17.7 µM (inactive) | GI50 (U-251): 21.2 µM (inactive) | GI50 (MDA-N): 8.99 µM (inactive) | GI50 (NCI-H460): 21 µM (inactive) | GI50 (IGROV-1): 17.7 µM (inactive) | GI50 (SN12C): 17.9 µM (inactive) | GI50 (HL-60): 2.4 µM (inactive) | GI50 (LOX IMVI): 14.4 µM (inactive) | GI50 (KM12): 30.5 µM (inactive) | GI50 (HCT-15): 20.6 µM | GI50 (EKVX): 14.6 µM (inactive) | GI50 (TK-10): 95.9 µM (inactive) | GI50 (ACHN): 34.2 µM (inactive) | GI50 (NCI-H226): 18.5 µM (inactive)

COc1cc(NS(C)(=O)=O)ccc1Nc1c2ccccc2nc2ccccc12 [AMSACRINE]
GI50 (CCRF-CEM): 0.0561 µM (active) | GI50 (COLO 205): 2.86 µM (inactive) | GI50 (SF-268): 0.415 µM (active) | GI50 (SK-OV-3): 0.398 µM (active) | GI50 (SK-MEL-28): 2.59 µM (inactive) | GI50 (NCI-H522): 0.668 µM (active) | GI50 (U-251): 0.166 µM (active) | GI50 (MDA-N): 3.32 µM (inactive) | GI50 (NCI-H460): 0.028 µM (active) | GI50 (IGROV-1): 2.4 µM (inactive) | GI50 (SN12C): 0.131 µM (active) | GI50 (HL-60): 0.0519 µM (active) | GI50 (LOX IMVI): 0.179 µM (active) | GI50 (KM12): 1.44 µM (inactive) | GI50 (HCT-15): 0.716 µM | GI50 (EKVX): 2.08 µM (inactive) | GI50 (TK-10): 2.63 µM (inactive) | GI50 (ACHN): 0.0525 µM (active) | GI50 (NCI-H226): 0.125 µM (active)

Source: ChEMBL document CHEMBL1201862, “PubChem BioAssay data set” (2004)
